Measurements from paper PMC11325505, “Nitrogen-Containing Flavonoids—Preparation and Biological Activity” (ACS Omega, 2024).
Converted amounts (≈) assume the structure as drawn. Like-named read-outs stand apart in the source and are kept apart here.

Key:
RAW 264.7 cells = experiment: Cellular antioxidant activity (CAA); assay type: cell-based, Murine; details: for IC50: average of four repetitions ± standard error of the mean; for change of antioxidant activity compared to the parent compound, in words: CAA in macrophages
Description: To evaluate the antioxidant activity of the prepared derivatives and the respective parent compounds, cellular antioxidant activity (CAA) was measured in macrophages. Compared to other in vitro antioxidant assays, this method provides partial information about the uptake and metabolism of the compounds, because, in this assay, they must first enter the cell to exert antioxidant activity.[31] […] Derivatization of quercetin at C-8 with 4-fluoroaniline (5) increased the antioxidant activity of quercetin by 1.7-fold. […] The concentration of these derivatives required to halve the cellular radicals decreased 1.5-fold compared to luteolin.
Cellular antioxidant capacity was evaluated as previously described.[31],[39] Briefly, 100 μL of RAW 264.7 cells with a density corresponding to 1 × 10^6 cells/mL were split into 96-well plates. After 24 h, cells were washed with PBS, and DMEM supplemented with DCFH-DA (0.0125 mg/mL) was added to each well together with the tested samples in the concentration range of 1.5–200 μM. After 1 h incubation in a CO2 incubator, the medium was replaced with AAPH solution (0.16 mg/mL in PBS), and fluorescence was immediately recorded (ex./em. 485/540 nm) for 2 h in 5 min intervals.

[1] = test system: interleukin 6 (IL-6) production by RAW 264.7 stimulated by LPS; experiment: Anti-inflammatory activity: IL-6 production by LPS-stimulated macrophages; assay type: cell-based, Murine; details: for IC50: Mus musculus, RAW264.7, LPS-stimulated RAW 264.7, average of four repetitions ± SEM; for ability to inhibit IL-6 production compared to luteolin, in words: LPS-stimulated macrophages
Description: The anti-inflammatory activity of flavonoids was evaluated as their ability to decrease the production of signaling molecules that mediate inflammation, such as nitric oxide (NO), tumor necrosis factor (TNF-α), and interleukin 6 (IL-6), in LPS-stimulated macrophages.
The anti-inflammatory activity of the tested flavonoids was determined as the ability to reduce the production of nitric oxide (NO), tumor necrosis factor (TNF-α), and interleukin 6 (IL-6) by RAW 264.7 stimulated by LPS, as previously described.[39],[40] Briefly, 1 × 10^6 cells/mL was seeded into the 96-well plate (100 μL/well). After 48 h, LPS (100 ng/mL) and the samples (3–100 μM) were added to the MEM medium. After 24 h, the medium was mixed with Griess reagent (0.04 g/mL) at a 1:1 ratio. The absorbance was measured after 15 min at 540 nm. Cell viability was determined using the resazurin assay.
To determine TNF-α levels, cells were precultivated with the tested compounds for 24 h. After 2 h of incubation with LPS, the medium was diluted 1:10 with ELISA diluent. To determine the level of IL-6, cells were cultivated for 6 h with LPS and the tested compounds. Cytokine production was determined using an uncoated ELISA performed according to the manufacturer’s instructions.

[2] = test system: human dermal fibroblasts (HDF); experiment: Cytotoxicity (resazurin assay), fibroblasts; assay type: cell-based; details: Homo sapiens, Fibroblast, 72 h, read-out: HDF IC50 (concentration that halved the viability)
Description: The cytotoxicity of the prepared derivatives was evaluated by their ability to decrease the viability of immortalized human keratinocytes (HaCaT) and human dermal fibroblasts (HDF).
100 μL of cell suspension containing 10^5 cells/mL was pipetted into a 96-well plate. After 24 h incubation, the tested compounds were added in the concentration range 12.5–200 μM. After 72 h incubation, the cell viability was tested by standard resazurin assay.[41] Briefly, the cells were washed with PBS and incubated with 100 μL of resazurin solution (0.025 mg/mL) for 2 h. The fluorescence was measured at a wavelength of 560 nm excitation/590 nm emission.

MRSA 1584 = experiment: Mode of antimicrobial action with gentamicin, aac(6')/aph(2')-positive strain; assay type: cell-based, Staphylococcus aureus; details: for effect (mode of action with gentamicin) / FIC (Fractional Inhibitory Concentration Index) / MIC: MRSA 1584; for MIC, Gentamicin [1 mg/L] yes: MRSA 1584 (aac(6')/aph(2')), with gentamicin 1 mg/L; for FIC (Fractional Inhibitory Concentration Index): with gentamicin; for MIC: Staphylococcus aureus, 24 h, read-out: MIC, Gentamicin [1 mg/L] no, without gentamicin
Excerpt: Among the mechanisms of resistance to gentamicin previously described in S. aureus, the presence of enzymes that alter the structure of aminoglycosides is crucial. These enzymes can transfer nucleotides, phosphates, or acetyls to various −OH or −NH2 groups of gentamicin, preventing its subsequent interaction with the cellular target, i.e., the 30S ribosomal subunit. The bifunctional aminoglycoside-modifying enzyme with acetylation and phosphotransferase activities encoded by the gene aac(6’)/aph(2’), 4′,4″ adenyltransferase encoded by the aadD gene, and aminoglycoside O-phosphotransferase encoded by the gene aph(3′) are the most important.[37] […] For this reason, further testing continued using strains MRSA 3596 and MRSA 1584, which inactivate gentamicin only by a single mechanism (aadD and aac(6’)-aph(2’’), respectively).
(§1) Sensitization of multidrug-resistant clinical bacterial strains was performed according to ref[15]. Antibiotic cutoff concentration was chosen according to the European Committee on Antimicrobial Susceptibility Testing (EUCAST, Clinical breakpoints–bacteria, ver. 11.0). The 200 μM concentration of the derivatives was chosen as the highest test concentration. The absorbance detected at 600 nm was then used to estimate the number of viable cells after 24 h of incubation at 37 °C and 120 rpm.
(§2) Experiments were performed with the respective number of replicates indicated in each figure/table. MIC was determined as IC70. Both IC70 and IC50 values were calculated using the following nonlinear regression in the software GraphPad Prism: […]

S. aureus MRSA 9 = experiment: Antibacterial activity, multidrug-resistant strain; assay type: cell-based; details: Staphylococcus aureus, MRSA; multidrug-resistant strain; three repetitions ± SEM
Description: To evaluate the ability to modulate bacterial resistance, the tested flavonoids themselves cannot exert antimicrobial activity; therefore, the nontoxic concentration was used, as indicated in Table S5. Clinically relevant antibiotics were selected at breakpoint concentrations for susceptibility testing according to the European Committee on Antimicrobial Susceptibility Testing (EUCAST, version 11.0). […] Flavonoids and their derivatives (from 1 μM to the highest nontoxic concentration) were used in combination with the breakpoint concentration of the antibiotics. After coincubation, the minimum inhibitory concentration (MIC) of flavonoids inhibiting the visible growth of bacteria was determined (Table 2).
as §1, §2

[3] = Mus musculus, RAW264.7, macrophages RAW 264.7
[4] = 72 h incubation, resazurin, average of three repetitions ± SEM

Row | Structure (SMILES) | IC50 (RAW 264.7 cells; [3]) | IC50 [1] | IC50 [2, 4] | effect (mode of action with gentamicin) (MRSA 1584) | MIC, Gentamicin [1 mg/L] yes (MRSA 1584) | FIC (Fractional Inhibitory Concentration Index) (MRSA 1584) | MIC (MRSA 1584) | IC50 (S. aureus MRSA 9) | change of antioxidant activity compared to the parent compound, in words (RAW 264.7 cells) | IC50 [2] | IC50 (RAW 264.7 cells; macrophages RAW 264.7) | ability to inhibit IL-6 production compared to luteolin, in words [1]
1 | O=c1c(O)c(-c2ccc(O)c(O)c2)oc2c(Nc3ccc(F)cc3)c(O)cc(O)c12 [compound 5, 2-(3,4-Dihydroxyphenyl)-8-(4-fluoroanilino)-3,5,7-trihydroxy-4H–1-benzopyran-4-one] | 3.4 ± 0.2 µM | 14.6 ± 0.8 µM | 95.9 ± 6.1 µM | additive (> 0.5-1 indicates additive effects) | 28.2 ± 0.5 µM (≈ 11.6 µg/mL) | 0.97 ± 0.02 | 29.2 ± 0.1 µM (≈ 12 µg/mL) | 60.7 ± 2.4 µM | – | – | – | –
2 | O=c1c(O)c(-c2ccc(O)c(O)c2)oc2c(Nc3ccc(C(F)(F)F)cc3)c(O)cc(O)c12 [compound 8, 2-(3,4-Dihydroxyphenyl)-8-(4-(trifluoromethyl)anilino)-3,5,7-trihydroxy-4H–1-benzopyran-4-one] | 11.5 ± 0.3 µM | 35.1 ± 1.6 µM | – | additive (> 0.5-1 indicates additive effects) | 23.9 ± 0.1 µM (≈ 11 µg/mL) | – | 24.5 ± 0.4 µM (≈ 11.3 µg/mL) | 35.3 ± 0.7 µM | significantly decreased the antioxidant activity | 111.9 ± 0.5 µM | – | –
3 | O=c1c(O)c(-c2ccc(O)c(O)c2)oc2cc(O)cc(O)c12 [compound 4, quercetin, reference compound] | 5.9 ± 0.4 µM | 4.7 ± 0.2 µM | – | additive (> 0.5-1 indicates additive effects) | 55.6 ± 1.1 µM (≈ 16.8 µg/mL) | 0.63 ± 0.01 | 88.6 ± 0.3 µM (≈ 26.8 µg/mL) | > 200 µM | – | 80 ± 1.5 µM | 5.85 µM | –
4 | O=c1cc(-c2ccc(O)c(O)c2)oc2c(Nc3ccc(C(F)(F)F)cc3)c(O)cc(O)c12 [compound 14, 2-(3,4-Dihydroxyphenyl)-8-(4-(trifluoromethyl)anilino)-5,7-dihydroxy-4H–1-benzopyran-4-one] | > 12.5 µM | 12.4 ± 0.4 µM | – | indifferent (> 1 to < 2 indicates indifference) | 26.1 ± 1.6 µM (≈ 11.6 µg/mL) | 1.71 ± 0.26 | 15.3 ± 1.3 µM (≈ 6.81 µg/mL) | 24 ± 0.1 µM | significantly decreased the antioxidant activity | 29.9 ± 1.1 µM | – | –
5 | O=c1cc(-c2ccc(O)c(O)c2)oc2c(Nc3ccccc3)c(O)cc(O)c12 [compound 13, 2-(3,4-Dihydroxyphenyl)-8-(anilino)-5,7-dihydroxy-4H–1-benzopyran-4-one] | 3.1 ± 0.1 µM | 7.3 ± 0.6 µM | 58.3 ± 2.7 µM | additive (> 0.5-1 indicates additive effects) | 49.9 ± 8.1 µM (≈ 18.8 µg/mL) | 0.70 ± 0.12 | 70.9 ± 0.3 µM (≈ 26.8 µg/mL) | 51.3 ± 1.3 µM | – | – | – | same ability to inhibit IL-6 production as luteolin
6 | O=c1cc(-c2ccc(O)c(O)c2)oc2cc(O)cc(O)c12 [compound 10, luteolin, reference compound] | 4.5 ± 0.5 µM | 7.3 ± 0.2 µM | – | additive (> 0.5-1 indicates additive effects) | 7.6 ± 1.0 µM (≈ 2.18 µg/mL) | 0.50 ± 0.11 | 15.2 ± 1.4 µM (≈ 4.35 µg/mL) | > 200 µM | – | 42.9 ± 3.4 µM | 4.48 µM | –
7 | COc1ccc(Nc2c(O)cc(O)c3c(=O)cc(-c4ccc(O)c(O)c4)oc23)cc1 [compound 12, 2-(3,4-Dihydroxyphenyl)-8-(4-methoxyanilino)-5,7-dihydroxy-4H–1-benzopyran-4-one] | 3.4 ± 0.1 µM | 15.3 ± 0.5 µM | 35.5 ± 1.5 µM | additive (> 0.5-1 indicates additive effects) | 47.1 ± 0.8 µM (≈ 19.2 µg/mL) | 0.65 ± 0.03 | 72.9 ± 2.4 µM (≈ 29.7 µg/mL) | 112 ± 1.2 µM | – | – | – | –
8 | O=c1cc(-c2ccc(O)c(O)c2)oc2c(Nc3ccc(F)cc3)c(O)cc(O)c12 [compound 11, 2-(3,4-Dihydroxyphenyl)-8-(4-fluoroanilino)-5,7-dihydroxy-4H–1-benzopyran-4-one] | 2.9 ± 0.2 µM | 7.2 ± 0.3 µM | – | additive (> 0.5-1 indicates additive effects) | 15.7 ± 0.9 µM (≈ 6.21 µg/mL) | 0.65 ± 0.06 | 24.1 ± 0.7 µM (≈ 9.53 µg/mL) | 38 ± 1.2 µM | – | 51.9 ± 3.7 µM | – | same ability to inhibit IL-6 production as luteolin
9 | O=c1cc(-c2ccc(O)c(O)c2)oc2c(Nc3cccc(F)c3)c(O)cc(O)c12 [compound 15, 2-(3,4-Dihydroxyphenyl)-8-(3-fluoroanilino)-5,7-dihydroxy-4H–1-benzopyran-4-one] | 6.7 ± 0.2 µM | 8 ± 0.6 µM | 30.9 ± 2.1 µM | additive (> 0.5-1 indicates additive effects) | 27.6 ± 0.5 µM (≈ 10.9 µg/mL) | 0.96 ± 0.02 | 28.6 ± 0.1 µM (≈ 11.3 µg/mL) | 56.9 ± 1.9 µM | significantly decreased the antioxidant activity | – | – | same ability to inhibit IL-6 production as luteolin
